Laboratory results: patent US8846951B2 (AbbVie Inc., priority 2009, dated 2014)
Entries after “also recorded” stand apart in the source; their conditions may differ.

Experiments:
5HT2C receptors = target: T1, 5HT2C receptors (Homo sapiens, UniProt P28335); experiment: Human 5-HT2C functional high throughput screening assay in CHO-K1 cells (calcium flux); assay type: cell-based; parameters: expressed in transfected cells; host or cells: CHO-K1 cells
T1 sequence (P28335 33-458): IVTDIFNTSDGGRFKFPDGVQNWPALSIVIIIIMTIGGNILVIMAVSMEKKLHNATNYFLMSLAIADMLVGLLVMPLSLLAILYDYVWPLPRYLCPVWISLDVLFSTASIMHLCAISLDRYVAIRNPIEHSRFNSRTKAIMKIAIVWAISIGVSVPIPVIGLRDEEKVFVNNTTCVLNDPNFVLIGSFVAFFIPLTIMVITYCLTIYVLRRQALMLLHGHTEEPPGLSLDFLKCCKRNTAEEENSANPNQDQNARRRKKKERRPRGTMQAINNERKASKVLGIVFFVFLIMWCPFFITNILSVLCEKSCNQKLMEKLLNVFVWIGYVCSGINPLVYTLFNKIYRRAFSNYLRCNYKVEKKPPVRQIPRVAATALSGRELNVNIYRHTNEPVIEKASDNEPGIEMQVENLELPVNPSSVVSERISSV
In short: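 Serum-starved CHO-K1 cells carrying the receptor; Ca4 dye, 60 min RT. Test compound added after a 10 s baseline, fluorescence followed for 3 min. EC50 from 4-parameter fit; Emax given as % of serotonin effect.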

[1] = tested on: MK-801-induced deficits in inhibitory avoidance; experiment: 24-hour inhibitory avoidance in mouse (MK-801-induced deficit); assay type: in vivo; conditions: CD1 mice; i.p.; high dose of 10 mg/kg; compared to Veh-MK-801 (0.1 mg/kg)
Description: (viii) Inhibitory Avoidance in Mouse
Specifically in the hippocampus CA1 area, N-methyl-D-aspartic acid (NMDA) receptors are known to regulate synaptic plasticity, long term-potentiation (LTP), and learning and memory processes, including short- and long-term memories. […] The inhibitory avoidance task involves the uses of a two-compartment step through apparatus (Ugo Basile, Collegeville, Pa.) that measures the animal's ability to remember a brief noxious stimulus (foot shock), and is considered a measure of trial learning, and memory. (Bitner, R. S., et al. J. Neurosci. 2007, 27(39), 10578-10587). The purpose of this experiment was to test the ability of a 5HTc agonist to attenuate MK-801-induced deficits in the 24-hour inhibitory avoidance test. Effects against MK-801-induced cognitive impairment may indicate a potential efficacy in treating cognitive deficits of schizophrenia.
Following a 2 hour habituation period, CD1 mice first received i.p. treatment with the test compound at 0, 1, 3, 10 mg/kg. 20 minutes later mice then received either MK-801 at 0.1 mg/kg (dissolved in 0.3% tartaric acid) or vehicle (Veh, water). […] The latency to enter the adjoining dark chamber was recorded, and an inescapable foot shock (0.3 mA, 1 second duration) was presented to the mouse. […] The latency to enter the dark chamber was recorded and was the dependent variable measured for assessing memory retention.

[2] = tested on: PCP-induced hyperlocomotion; experiment: Psychostimulant (PCP)-induced hyperlocomotion in rat; assay type: in vivo; conditions: male CD rats; i.p. 1, 3, 10 mg/kg 30 min before PCP 2 mg/kg sc; significant at 1 mg/kg and 10 mg/kg
Description: (vii) Assessment of Effects on Psychostimulant-Induced Hyperlocomotion in Rat
In humans, phencyclidine (PCP) is known to produce a syndrome of behavioral effects which have many characteristics in common with schizophrenia. Therefore, antagonism of PCP effects might be evidence for antipsychotic efficacy of a compound.
Male CD rats with a body weight of 316-394 g from Charles River (Portage, Mich.) were used in this study. The rats were habituated to the test room for 60 minutes. The rats were then placed into the locomotor activity chambers (AccuScan Instruments) for 30 minutes and then were dosed i.p. with Example 115 at 0, 1, 3 and 10 mg/kg. The rats were dosed sc 30 minutes later with PCP at 0 or 2 mg/kg. The activity was measured for 150 minutes in total and 90 minutes post PCP.

EC50 (5HT2C receptors; 5-HT2C agonist activity, CHO-K1 cells, calcium flux, read-out: EC50): 2 nM
Emax (5HT2C receptors; CHO-K1, 5-HT2C, maximum functional response as percentage relative to the effect of serotonin, read-out: Emax): > 120%
Structure (SMILES): CN1C[C@@H]2CNC(=O)c3cc(-c4ccc(F)cc4)ccc3[C@H]2C1 [Example 115, (3aS,10bS)-8-(4-Fluorophenyl)-2-methyl-1,2,3,3a,4,5-hexahydrobenzo[e]pyrrolo[3,4-c]azepin-6(10bH)-one]
transfer latency, 24-hour inhibitory avoidance [1]: significantly increased transfer latencies; also recorded: dose-dependent improvement in mouse 24-hour inhibitory avoidance scores
PCP-induced hyperlocomotion (distance traveled) [2]: significantly attenuate the PCP-induced hyperlocomotion; also recorded: attenuating the affect of phencyclidine (PCP)
